Consider 28 compounds from patent publication US12110293B2, “Substituted triazolo quinoxaline derivatives” (GRÜNENTHAL GMBH, priority 2018, dated 2024).

This test deals with T1, glucocorticoid receptor (Homo sapiens, UniProt P04150).
T1 construct: expressed in transfected cells
T1 sequence (P04150 524-758 limits assumed): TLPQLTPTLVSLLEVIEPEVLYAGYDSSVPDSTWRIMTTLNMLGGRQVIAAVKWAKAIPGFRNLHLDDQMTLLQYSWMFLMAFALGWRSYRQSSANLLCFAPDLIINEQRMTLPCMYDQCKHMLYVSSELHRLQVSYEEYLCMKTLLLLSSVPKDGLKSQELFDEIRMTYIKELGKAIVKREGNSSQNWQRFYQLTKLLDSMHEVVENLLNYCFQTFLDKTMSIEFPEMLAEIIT
In words: Agonistic mode of action on the glucocorticoid receptor (CHO-Gal4/GR luciferase reporter cell line). Format: cell-based. To be noted: range class observed in the agonistic assay or the antagonistic assay (CHO-Gal4/GR reporter cells); table does not say which mode applies per example. A digest of the protocol: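 CHO cells stably carrying GAL4 DBD–GR ligand-binding-domain fusion and GAL4-UAS firefly luciferase reporter, 5000 cells/well grown 24 h, then compounds added in Opti-MEM at 8 half-log concentrations from 10 μM to 0.003 μM (0.5% DMSO), quadruplicates. Agonist-induced luminescence read on FLIPR Tetra; EC50 calculated.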
In general terms: Reporter assays use an easily measured gene product as a stand-in for the process of interest.
As to `Cc1nnc2n1-c1c(cc(F)c(-c3cccc4cc[nH]c34)c1C(F)(F)F)NC2(C)C` [Example 86, 7-fluoro-8-(1H-indol-7-yl)-1,4,4-trimethyl-9-(trifluoromethyl)-4,5-dihydro-[1,2,4]triazolo[4,3-a]quinoxaline], the IC50 or EC50 (agonist or antagonist mode not specified) was in the range of 100 to 1000 nM.

`Cc1nnc2n1-c1c(cc(F)c(-c3cccc4c(C5CC5)c[nH]c34)c1C(F)(F)F)NC2(C)C` [Example 87, 8-(3-cyclopropyl-1H-indol-7-yl)-7-fluoro-1,4,4-trimethyl-9-(trifluoromethyl)-4,5-dihydro-[1,2,4]triazolo[4,3-a]quinoxaline] gave an IC50 or EC50 (agonist or antagonist mode not specified) of 100 to 1000 nM.

Consider `Cc1nnc2n1-c1c(cc(F)c(-c3cc(F)cc4c3ccn4C3CC3)c1C(F)(F)F)NC2(C)C` [Example 88, 8-(1-Cyclopropyl-6-fluoro-1H-indol-4-yl)-7-fluoro-1,4,4-trimethyl-9-(trifluoromethyl)-5H-[1,2,4]triazolo[4,3-a]quinoxaline], for which the IC50 or EC50 (agonist or antagonist mode not specified) is less than 100 nM.

`Cc1nnc2n1-c1c(cc(F)c(-c3cccc4c(C#N)c[nH]c34)c1C(F)(F)F)NC2(C)C` [Example 89, 7-(7-fluoro-1,4,4-trimethyl-9-(trifluoromethyl)-4,5-dihydro-[1,2,4]triazolo[4,3-a]quinoxalin-8-yl)-1H-indole-3-carbonitrile] registered an IC50 or EC50 (agonist or antagonist mode not specified) of 100 to 1000 nM.

Consider `Cc1nnc2n1-c1c(cc(F)c(-c3cccc4c3ccn4S(=O)(=O)C(C)C)c1F)NC2(C)C` [Example 200, 7,9-Difluoro-8-[1-(isopropylsulfonyl)-1H-indol-4-yl]-1,4,4-trimethyl-5H-[1,2,4]triazolo[4,3-a]quinoxaline], for which the IC50 or EC50 (agonist or antagonist mode not specified) fell in the range of 1000 to 15000 nM.

`Cc1nnc2n1-c1c(cc(F)c(-c3cccc4c3ccn4S(=O)(=O)C3CCCC3)c1F)NC2(C)C` [Example 201, 8-[1-(Cyclopentylsulfonyl)-1H-indol-4-yl]-7,9-difluoro-1,4,4-trimethyl-5H-[1,2,4]triazolo[4,3-a]quinoxaline] returned an IC50 or EC50 (agonist or antagonist mode not specified) of 1000 to 15000 nM.

In turn, `Cc1nnc2n1-c1c(cc(F)c(-c3cccc4c3ccn4CC3CC3)c1F)NC2(C)C` [Example 202, 8-[1-(Cyclopropyl-methyl)-1H-indol-4-yl]-7,9-difluoro-1,4,4-trimethyl-5H-[1,2,4]triazolo[4,3-a]quinoxaline] registered an IC50 or EC50 (agonist or antagonist mode not specified) of less than 100 nM.

For the compound `COCCn1ccc2c(-c3c(F)cc4c(c3F)-n3c(C)nnc3C(C)(C)N4)cccc21` [Example 204, 7,9-Difluoro-8-[1-(2-methoxy-ethyl)-1H-indol-4-yl]-1,4,4-trimethyl-5H-[1,2,4]triazolo[4,3-a]quinoxaline], the IC50 or EC50 (agonist or antagonist mode not specified) lay in the range of 100 to 1000 nM.

As for `Cc1nnc2n1-c1c(cc(F)c(-c3cccc4c3ccn4S(=O)(=O)C3CC3)c1F)NC2(C)C` [Example 205, 8-[1-(Cyclopropylsulfonyl)-1H-indol-4-yl]-7,9-difluoro-1,4,4-trimethyl-5H-[1,2,4]triazolo[4,3-a]quinoxaline], the IC50 or EC50 (agonist or antagonist mode not specified) lay in the range of 100 to 1000 nM.

For `Cc1nnc2n1-c1c(cc(F)c(-c3cc(C(F)(F)F)cc4[nH]ccc34)c1F)NC2(C)C` [Example 207, 7,9-Difluoro-1,4,4-trimethyl-8-[6-(trifluoromethyl)-1H-indol-4-yl]-5H-[1,2,4]triazolo[4,3-a]quinoxaline], the IC50 or EC50 (agonist or antagonist mode not specified) was in the range of 100 to 1000 nM.

Regarding `Cc1nnc2n1-c1c(cc(F)c(-c3cccc4c3ccn4S(=O)(=O)CC3CC3)c1F)NC2(C)C` [Example 210, 8-[1-(Cyclopropyl-methylsulfonyl)-1H-indol-4-yl]-7,9-difluoro-1,4,4-trimethyl-5H-[1,2,4]triazolo[4,3-a]quinoxaline], the IC50 or EC50 (agonist or antagonist mode not specified) was less than 100 nM.

`Cc1nnc2n1-c1c(cc(F)c(-c3cccc4c3ccn4CC(=O)N(C)C)c1F)NC2(C)C` [Example 212, 2-[4-(7,9-Difluoro-1,4,4-trimethyl-5H-[1,2,4]triazolo[4,3-a]quinoxalin-8-yl)-1H-indol-1-yl]-N,N-dimethyl-acetamide] yielded an IC50 or EC50 (agonist or antagonist mode not specified) of 1000 to 15000 nM.

As for `COCC(=O)n1ccc2c(-c3c(F)cc4c(c3F)-n3c(C)nnc3C(C)(C)N4)cccc21` [Example 213, 1-[4-(7,9-Difluoro-1,4,4-trimethyl-5H-[1,2,4]triazolo[4,3-a]quinoxalin-8-yl)-1H-indol-1-yl]-2-methoxy-ethanone], the IC50 or EC50 (agonist or antagonist mode not specified) was less than 100 nM.

`Cc1nnc2n1-c1c(cc(F)c(-c3c(F)ccc4[nH]ccc34)c1F)NC2(C)C` [Example 214, 7,9-Difluoro-8-(5-fluoro-1H-indol-4-yl)-1,4,4-trimethyl-5H-[1,2,4]triazolo[4,3-a]quinoxaline] showed an IC50 or EC50 (agonist or antagonist mode not specified) of less than 100 nM.

On to `COC(=O)CCn1ccc2c(-c3c(F)cc4c(c3F)-n3c(C)nnc3C(C)(C)N4)cccc21` [Example 219, 3-[4-(7,9-Difluoro-1,4,4-trimethyl-5H-[1,2,4]triazolo[4,3-a]quinoxalin-8-yl)-1H-indol-1-yl]-propionic acid methyl ester], for which the IC50 or EC50 (agonist or antagonist mode not specified) was 1000 to 15000 nM.

Compound `Cc1nnc2n1-c1c(cc(F)c(-c3cccc4c3cnn4C)c1F)NC2(C)C` [Example 221, 7,9-Difluoro-1,4,4-trimethyl-8-(1-methyl-1H-indazol-4-yl)-5H-[1,2,4]triazolo[4,3-a]quinoxaline] gave an IC50 or EC50 (agonist or antagonist mode not specified) of 100 to 1000 nM.

For the compound `Cc1nnc2n1-c1c(cc(F)c(-c3cccc4nn(C)cc34)c1F)NC2(C)C` [Example 222, 7,9-Difluoro-1,4,4-trimethyl-8-(2-methyl-2H-indazol-4-yl)-5H-[1,2,4]triazolo[4,3-a]quinoxaline], the IC50 or EC50 (agonist or antagonist mode not specified) is 1000 to 15000 nM.

`Cc1nnc2n1-c1c(cc(F)c(-c3cccc4c3ccn4C(=O)CN(C)C)c1F)NC2(C)C` [Example 223, 1-[4-(7,9-Difluoro-1,4,4-trimethyl-5H-[1,2,4]triazolo[4,3-a]quinoxalin-8-yl)-1H-indol-1-yl]-2-dimethylamino-ethanone]: the IC50 or EC50 (agonist or antagonist mode not specified) is less than 100 nM.

Take `Cc1nnc2n1-c1c(cc(F)c(-c3c(F)ccc4c3ccn4S(C)(=O)=O)c1F)NC2(C)C` [Example 224, 7,9-Difluoro-8-(5-fluoro-1-methylsulfonyl-1H-indol-4-yl)-1,4,4-trimethyl-5H-[1,2,4]triazolo[4,3-a]quinoxaline]: the IC50 or EC50 (agonist or antagonist mode not specified) was 100 to 1000 nM.

As to `Cc1nnc2n1-c1c(cc(F)c(-c3cccc4[nH]c(C(F)(F)F)cc34)c1F)NC2(C)C` [Example 225, 7,9-Difluoro-1,4,4-trimethyl-8-[2-(trifluoromethyl)-1H-indol-4-yl]-5H-[1,2,4]triazolo[4,3-a]quinoxaline], the IC50 or EC50 (agonist or antagonist mode not specified) is less than 100 nM.

`Cc1nnc2n1-c1c(cc(F)c(-c3cccc4c3ccn4CCNC(=O)OC(C)(C)C)c1F)NC2(C)C` [Example 228, N-[2-[4-(7,9-Difluoro-1,4,4-trimethyl-5H-[1,2,4]triazolo[4,3-a]quinoxalin-8-yl)-1H-indol-1-yl]-ethyl]-carbarmic acid tert-butyl ester] gave an IC50 or EC50 (agonist or antagonist mode not specified) of 1000 to 15000 nM.

In turn, `Cc1nnc2n1-c1c(cc(F)c(-c3cccc4c3ccn4CCNC(=O)C(C)(F)F)c1F)NC2(C)C` [Example 229, N-[2-[4-(7,9-Difluoro-1,4,4-trimethyl-5H-[1,2,4]triazolo[4,3-a]quinoxalin-8-yl)-1H-indol-1-yl]-ethyl]-2,2-difluoro-propionamide] gave an IC50 or EC50 (agonist or antagonist mode not specified) of 1000 to 15000 nM.

For `Cc1nnc2n1-c1c(cc(F)c(-c3cccc4[nH]ncc34)c1F)NC2(C)C` [Example 232, 7,9-Difluoro-8-(1H-indazol-4-yl)-1,4,4-trimethyl-5H-[1,2,4]triazolo[4,3-a]quinoxaline], the IC50 or EC50 (agonist or antagonist mode not specified) lay in the range of 100 to 1000 nM.

As to `COCCn1ncc2c(-c3c(F)cc4c(c3F)-n3c(C)nnc3C(C)(C)N4)cccc21` [Example 233, 7,9-Difluoro-8-[1-(2-methoxy-ethyl)-1H-indazol-4-yl]-1,4,4-trimethyl-5H-[1,2,4]triazolo[4,3-a]quinoxaline], the IC50 or EC50 (agonist or antagonist mode not specified) lay within 100 to 1000 nM.

`Cc1nnc2n1-c1c(cc(F)c(-c3cccc4c3cnn4S(=O)(=O)C3CC3)c1F)NC2(C)C` [Example 234, 8-[1-(Cyclopropylsulfonyl)-1H-indazol-4-yl]-7,9-difluoro-1,4,4-trimethyl-5H-[1,2,4]triazolo[4,3-a]quinoxaline] displayed an IC50 or EC50 (agonist or antagonist mode not specified) of 1000 to 15000 nM.

`Cc1nnc2n1-c1c(cc(F)c(-c3cccc4c3cnn4CC3CC3)c1F)NC2(C)C` [Example 235, 8-[1-(Cyclopropyl-methyl)-1H-indazol-4-yl]-7,9-difluoro-1,4,4-trimethyl-5H-[1,2,4]triazolo[4,3-a]quinoxaline] yielded an IC50 or EC50 (agonist or antagonist mode not specified) of less than 100 nM.

The compound `CCn1ncc2c(-c3c(F)cc4c(c3F)-n3c(C)nnc3C(C)(C)N4)cccc21` [Example 236, 8-(1-Ethyl-1H-indazol-4-yl)-7,9-difluoro-1,4,4-trimethyl-5H-[1,2,4]triazolo[4,3-a]quinoxaline] returned an IC50 or EC50 (agonist or antagonist mode not specified) of 100 to 1000 nM.

For the compound `CCn1cc2c(-c3c(F)cc4c(c3F)-n3c(C)nnc3C(C)(C)N4)cccc2n1` [Example 237, 8-(2-Ethyl-2H-indazol-4-yl)-7,9-difluoro-1,4,4-trimethyl-5H-[1,2,4]triazolo[4,3-a]quinoxaline], the IC50 or EC50 (agonist or antagonist mode not specified) was 1000 to 15000 nM.
